Data as given in US20090306135A1 (priority 2008, published 2009).
Where two headings read alike, the source gives them in different places.

Assays:
[1] = From the text: X-Ray tube with Cu target anode Divergence slits 1 0, Receiving slit 0.15 mm, Scatter slit 1 0 Power: 40 KV, 100 mA; Scanning speed: 2 degree/minute step: 0.02 degree; Wave length: 1.5406 A; Spray Dryer: PST01
[2] = Storage stability at 25 ± 2° C. and 60 ± 5% RH; format: physicochemical
[3] = 40 ± 2° C. and 75 ± 5% RH, 1 Month
[4] = 40 ± 2° C. and 75 ± 5% RH, 2 Month
[5] = 40 ± 2° C. and 75 ± 5% RH, 3 Month
[6] = 40 ± 2° C. and 75 ± 5% RH, Initial
[7] = 40 ± 2° C. and 75 ± 5% RH (Using BHA), 1 Month
[8] = 40 ± 2° C. and 75 ± 5% RH (Using BHA), 2 Month
[9] = 40 ± 2° C. and 75 ± 5% RH (Using BHA), Initial

Structure (SMILES): CC(C)(C(=O)O)c1ccc(C(O)CCCN2CCC(C(O)(c3ccccc3)c3ccccc3)CC2)cc1.Cl (racemic) [Example 1, (±)-4-[1 hydroxy-4-[4-(hydroxydiphenylmethyl)-1-piperidinyl]-butyl]-α,α-dimethyl benzeneacetic acid hydrochloride]
- Assay by HPLC [1, 3]: 99.4 % w/w on dried basis
- Description [1, 3]: White Powder
- Possible impurities Comp-A [1, 3]: 0.050
- Related Subs [1, 3]: 0.201 % w/w
- XRD [1, 3]: Complies
- Assay by HPLC [1, 4]: 98.7 % w/w on dried basis
- Description [1, 4]: White Powder
- Possible impurities Comp-A [1, 4]: 0.047
- Possible impurities ME-pF (Methyl ester of p-fexofenadine) [1, 4]: 0.002
- Possible impurities TRS-1 [1, 4]: 0.008
- Related Subs [1, 4]: 0.237 % w/w
- XRD [1, 4]: Complies
- Assay by HPLC [1, 5]: 99.3 % w/w on dried basis
- Description [1, 5]: White Powder
- Possible impurities Comp-A [1, 5]: 0.053
- Related Subs [1, 5]: 0.203 % w/w
- XRD [1, 5]: Complies
- Assay by HPLC [1, 6]: 99.0 % w/w on dried basis
- Description [1, 6]: White Powder
- Possible impurities Comp-A [1, 6]: 0.049
- Related Subs [1, 6]: 0.188 % w/w
- XRD [1, 6]: Complies
- Assay by HPLC ([2]; 3 Month): 99.4 % w/w on dried basis
- Description ([2]; 3 Month): White Powder
- Possible impurities Comp-A ([2]; 3 Month): 0.050
- Related Subs ([2]; 3 Month): 0.213 % w/w
- XRD ([2]; 3 Month): Complies
- Assay by HPLC ([2]; 6 Month): 98.8 % w/w on dried basis
- Description ([2]; 6 Month): White Powder
- Possible impurities Comp-A ([2]; 6 Month): 0.040
- Related Subs ([2]; 6 Month): 0.186 % w/w
- XRD ([2]; 6 Month): Complies
- Assay by HPLC ([2]; 9 Month): 100.2 % w/w on dried basis
- Description ([2]; 9 Month): White Powder
- Possible impurities Comp-A ([2]; 9 Month): 0.039
- Related Subs ([2]; 9 Month): 0.171 % w/w
- XRD ([2]; 9 Month): Complies
- Assay by HPLC ([2]; Initial): 99.0 % w/w on dried basis
- Description ([2]; Initial): White Powder
- Possible impurities Comp-A ([2]; Initial): 0.049
- Related Subs ([2]; Initial): 0.188 % w/w
- XRD ([2]; Initial): Complies

Structure (SMILES): CC(C)(C(=O)O)c1ccc(C(O)CCCN2CCC(C(O)(c3ccccc3)c3ccccc3)CC2)cc1.Cl (racemic) [Example 2, (±)-4-[1 hydroxy-4-[4-(hydroxydiphenylmethyl)-1-piperidinyl]-butyl]-α,α-dimethyl benzeneacetic acid hydrochloride]
- Assay by HPLC [1, 7]: 99.6 % w/w on dried basis
- Description [1, 7]: White powder
- Possible impurities Comp-A [1, 7]: 0.069
- Possible impurities ME-mF (Methyl ester of m-fexofenadine) [1, 7]: 0.023
- Possible impurities TRS-1 [1, 7]: 0.008
- Related Subs [1, 7]: 0.227 % w/w
- XRD [1, 7]: Complies
- Assay by HPLC [1, 8]: 99.3 % w/w on dried basis
- Description [1, 8]: White powder
- Possible impurities Comp-A [1, 8]: 0.067
- Possible impurities ME-mF (Methyl ester of m-fexofenadine) [1, 8]: 0.019
- Possible impurities TRS-1 [1, 8]: 0.009
- Related Subs [1, 8]: 0.218 % w/w
- XRD [1, 8]: Complies
- Assay by HPLC [1, 9]: 99.3 % w/w on dried basis
- Description [1, 9]: White powder
- Possible impurities Comp-A [1, 9]: 0.071
- Possible impurities ME-mF (Methyl ester of m-fexofenadine) [1, 9]: 0.023
- Related Subs [1, 9]: 0.219 % w/w
- XRD [1, 9]: Complies

Structure (SMILES): CC(C)(C(=O)O)c1ccc(C(O)CCCN2CCC(C(O)(c3ccccc3)c3ccccc3)CC2)cc1.Cl (racemic) [amorphous fexofenadine hydrochloride, (±)-4-[1 hydroxy-4-[4-(hydroxydiphenylmethyl)-1-piperidinyl]-butyl]-α,α-dimethyl benzeneacetic acid hydrochloride]
- time for which the product is stable ([1]; different storage conditions (Tables 1-3)): ≥ 3 months
